Measurements published in ChEMBL document CHEMBL3785036 (J Pharm Sci, 1974).

Columns and labels:
Type in all cases: ADME, organism-based
[1] = Drug metabolism in human slow inactivators assessed as excretion of isonicotinic acid in urine at 1 g, iv by colorimetry; settings: in vivo
[2] = Drug excretion in human subject slow inactivator assessed as sum of isoniazid plus hydrazones, acetylisoniazid, isonicotinic acid and isonicotinuric acid level in urine at 681 mg, iv infused at constant rate 5.4 min measured 35.5 mins after start of drug injection by colorimetry; settings: in vivo
[3] = Drug excretion in human subject slow inactivator assessed as sum of isoniazid plus hydrazones, acetylisoniazid, isonicotinic acid and isonicotinuric acid level in urine at 681 mg, iv infused at constant rate 5.4 min measured 116 mins after start of drug injection by colorimetry; settings: in vivo
[4] = Drug excretion in human subject slow inactivator assessed as sum of isoniazid plus hydrazones, acetylisoniazid, isonicotinic acid and isonicotinuric acid level in urine at 681 mg, iv infused at constant rate 5.4 min measured 276.3 mins after start of drug injection by colorimetry; settings: in vivo, 4.605 h
[5] = Drug excretion in human subject slow inactivator assessed as sum of isoniazid plus hydrazones, acetylisoniazid, isonicotinic acid and isonicotinuric acid level in urine at 681 mg, iv infused at constant rate 5.4 min measured 305 mins after start of drug injection by colorimetry; settings: in vivo
[6] = Drug excretion in human subject slow inactivator assessed as sum of isoniazid plus hydrazones, acetylisoniazid, isonicotinic acid and isonicotinuric acid level in urine at 681 mg, iv infused at constant rate 5.4 min measured 339.3 mins after start of drug injection by colorimetry; settings: in vivo, 5.655 h
[7] = Drug excretion in human subject slow inactivator assessed as sum of isoniazid plus hydrazones, acetylisoniazid, isonicotinic acid and isonicotinuric acid level in urine at 681 mg, iv infused at constant rate 5.4 min measured 370.3 mins after start of drug injection by colorimetry; settings: in vivo, 6.17167 h
[8] = Drug excretion in human subject slow inactivator assessed as sum of isoniazid plus hydrazones, acetylisoniazid, isonicotinic acid and isonicotinuric acid level in urine at 681 mg, iv infused at constant rate 5.4 min measured 396 mins after start of drug injection by colorimetry; settings: in vivo, 6.6 h
[9] = Drug excretion in human subject slow inactivator assessed as sum of isoniazid plus hydrazones, acetylisoniazid, isonicotinic acid and isonicotinuric acid level in urine at 681 mg, iv infused at constant rate 5.4 min measured 430.2 mins after start of drug injection by colorimetry; settings: in vivo, 7.17 h
[10] = Drug excretion in human subject slow inactivator assessed as sum of isoniazid plus hydrazones, acetylisoniazid, isonicotinic acid and isonicotinuric acid level in urine at 681 mg, iv infused at constant rate 5.4 min measured 524 mins after start of drug injection by colorimetry; settings: in vivo
[11] = Drug excretion in human subject slow inactivator assessed as sum of isoniazid plus hydrazones, acetylisoniazid, isonicotinic acid and isonicotinuric acid level in urine at 681 mg, iv infused at constant rate 5.4 min measured 554 mins after start of drug injection by colorimetry; settings: in vivo
[12] = Drug excretion in human subject slow inactivator assessed as sum of isoniazid plus hydrazones, acetylisoniazid, isonicotinic acid and isonicotinuric acid level in urine at 681 mg, iv infused at constant rate 5.4 min measured 747 mins after start of drug injection by colorimetry; settings: in vivo, 12.45 h
[13] = Drug excretion in human subject slow inactivator assessed as total isonicotinoyl compound level in urine at 681 mg, iv infused at constant rate 5.4 min measured 59.1 mins after start of drug injection by colorimetry; settings: in vivo, 0.985 h
[14] = Drug excretion in human subject slow inactivator assessed as total isonicotinoyl compound level in urine at 681 mg, iv infused at constant rate 5.4 min measured 116 mins after start of drug injection by colorimetry; settings: in vivo
[15] = Drug excretion in human subject slow inactivator assessed as total isonicotinoyl compound level in urine at 681 mg, iv infused at constant rate 5.4 min measured 396 mins after start of drug injection by colorimetry; settings: in vivo, 6.6 h
[16] = Drug excretion in human subject slow inactivator assessed as total isonicotinoyl compound level in urine at 681 mg, iv infused at constant rate 5.4 min measured 466 mins after start of drug injection by colorimetry; settings: in vivo
[17] = Drug excretion in human subject slow inactivator assessed as total isonicotinoyl compound level in urine at 681 mg, iv infused at constant rate 5.4 min measured 524 mins after start of drug injection by colorimetry; settings: in vivo
[18] = Drug excretion in human rapid inactivators urine assessed as isoniazid plus hydrazones level at 1 g, iv by colorimetry; settings: in vivo
[19] = Drug excretion in human slow inactivators urine assessed as acetylisoniazid level at 1 g, iv by colorimetry; settings: in vivo
[20] = Drug metabolism in human rapid inactivators assessed as excretion of isonicotinuric acid in urine at 1 g, iv by colorimetry; settings: in vivo
[21] = Drug metabolism in human rapid inactivators assessed as excretion of 1,2-diacetylhydrazine in urine at 1 g, iv by colorimetry; settings: in vivo
[22] = Drug metabolism in human slow inactivators assessed as excretion of pyruvic acid isonicotinoylhydrazone in urine at 1 g, iv by colorimetry; settings: in vivo
[23] = Drug metabolism in human slow inactivators assessed as excretion of alpha-ketoglutaric acid isonicotinoylhydrazone in urine at 1 g, iv by colorimetry; settings: in vivo
[24] = Drug excretion in human subject slow inactivator assessed as total isonicotinoyl compound level in urine at 681 mg, iv infused at constant rate 5.4 min measured 710 mins after start of drug injection by colorimetry; settings: in vivo
[25] = Drug excretion in human subject rapid inactivator assessed as sum of isoniazid plus hydrazones, acetylisoniazid, isonicotinic acid and isonicotinuric acid level in urine at 670 mg, iv infused at constant rate 5.2min measured 94 mins after start of drug injection by colorimetry; settings: in vivo
[26] = Drug excretion in human subject rapid inactivator assessed as sum of isoniazid plus hydrazones, acetylisoniazid, isonicotinic acid and isonicotinuric acid level in urine at 670 mg, iv infused at constant rate 5.2min measured 126 mins after start of drug injection by colorimetry; settings: in vivo, 2.1 h
[27] = Drug excretion in human subject rapid inactivator assessed as sum of isoniazid plus hydrazones, acetylisoniazid, isonicotinic acid and isonicotinuric acid level in urine at 670 mg, iv infused at constant rate 5.2min measured 335 mins after start of drug injection by colorimetry; settings: in vivo
[28] = Drug excretion in human subject rapid inactivator assessed as sum of isoniazid plus hydrazones, acetylisoniazid, isonicotinic acid and isonicotinuric acid level in urine at 670 mg, iv infused at constant rate 5.2min measured 458 mins after start of drug injection by colorimetry; settings: in vivo
[29] = Drug excretion in human subject rapid inactivator assessed as sum of isoniazid plus hydrazones, acetylisoniazid, isonicotinic acid and isonicotinuric acid level in urine at 670 mg, iv infused at constant rate 5.2min measured 516 mins after start of drug injection by colorimetry; settings: in vivo
[30] = Drug excretion in human subject rapid inactivator assessed as total isonicotinoyl compound level in urine at 670 mg, iv infused at constant rate 5.2min measured 32 mins after start of drug injection by colorimetry; settings: in vivo
[31] = Drug excretion in human subject rapid inactivator assessed as total isonicotinoyl compound level in urine at 670 mg, iv infused at constant rate 5.2min measured 373 mins after start of drug injection by colorimetry; settings: in vivo

## NNC(=O)c1ccncc1 [ISONIAZID]
[1]
  Drug metabolism: 18.1 %molar
[2]
  Drug excretion: 44.45 mg
[3]
  Drug excretion: 32.27 mg
[4]
  Drug excretion: 32.59 mg
[5]
  Drug excretion: 27.92 mg
[6]
  Drug excretion: 33.69 mg
[7]
  Drug excretion: 26.76 mg
[8]
  Drug excretion: 17.18 mg
[9]
  Drug excretion: 21.24 mg
[10]
  Drug excretion: 11.32 mg
[11]
  Drug excretion: 13.38 mg
[12]
  Drug excretion: 10.074 mg
[13]
  Drug excretion: 33.7 mg
[14]
  Drug excretion: 32 mg
[15]
  Drug excretion: 16.5 mg
[16]
  Drug excretion: 20 mg
[17]
  Drug excretion: 10.4 mg
[18]
  Drug excretion: 99.6%
[19]
  Drug excretion: 97%
[20]
  Drug metabolism: 21.3 %molar
[21]
  Drug metabolism: 48.4 %molar
[22]
  Drug metabolism: 13.9 %molar
[23]
  Drug metabolism: 6.9 %molar
[24]
  Drug excretion: 9.25 mg
[25]
  Drug excretion: 48.1 mg
[26]
  Drug excretion: 42.3 mg
[27]
  Drug excretion: 29 mg
[28]
  Drug excretion: 17.3 mg
[29]
  Drug excretion: 16.8 mg
[30]
  Drug excretion: 45.9 mg
[31]
  Drug excretion: 28.7 mg
